{"source": "paper PMC10236072", "about": "“Microwave-assisted synthesis of [^52Mn]Mn-porphyrins: Applications in cell and liposome radiolabelling” (Nuclear Medicine and Biology, 2022)", "key": {"[1]": {"test": "Log P (1-octanol/water partition, gamma counting)", "type": "physicochemical", "conditions": "1-octanol/H2O, mean ± SD, n = 3 (free 52Mn n = 2)", "description": "An aliquot (500 μL) of each layer was then added to an Eppendorf. An aliquot (20 μL) of the [^52Mn]Mn-porphyrin reaction mixture was then added to the two layers and vortexed for 5 min. After mixing, the suspension was […] briefly for 10 s to settle the layers, and 200 μL of each layer was extracted. The octanol and H2O layers were then gamma counted (Wallac CompuGamma) and the Log P was calculated as below: LogP=LogActivityCPMin octanol layer/ActivityCPMinwaterlayer"}, "[2]": {"design": "method as in PMID 3821476", "conditions": "up to 9 days, UV-spectroscopy; cited from earlier work"}, "various cell lines": {"system": "various cell lines", "conditions": "cited from earlier work"}, "[3]": {"test": "Solubility in aqueous and organic solvents", "type": "physicochemical"}}, "note": "Read-outs that look alike come from different tables or passages of the source."}
{"compound": "[Cl][52Mn][Cl]", "note": "[Buffered ^52Mn, [^52Mn]MnCl2]", "values": [{"measurement": "Log P value", "setting": "[1]", "value": "−2.4 ± 0.7"}]}
{"compound": "O=S(=O)([O-])c1ccc(-c2c3nc(c(-c4ccc(S(=O)(=O)[O-])cc4)c4ccc([n-]4)c(-c4ccc(S(=O)(=O)[O-])cc4)c4ccc([n-]4)c(-c4ccc(S(=O)(=O)[O-])cc4)c4nc2C=C4)C=C3)cc1.[Mn+3]", "note": "[Mn-(5)]", "values": [{"measurement": "stability in human plasma", "setting": "[2]", "value": "stable"}]}
{"compound": "[89Zr+4].[O-]c1cccc2cccnc12.[O-]c1cccc2cccnc12.[O-]c1cccc2cccnc12.[O-]c1cccc2cccnc12", "note": "[[^89Zr]Zr-oxine]", "values": [{"measurement": "cellular retention", "setting": "various cell lines; later timepoints (5–7 days)", "value": "at least 30%"}, {"measurement": "cellular retention", "setting": "various cell lines; various cell lines, after 24 h", "value": "> 65", "unit": "%"}]}
{"compound": "CNS(=O)(=O)c1ccc(F)c(-c2c3nc(c(-c4c(F)ccc(S(=O)(=O)NC)c4F)c4ccc([nH]4)c(-c4c(F)ccc(S(=O)(=O)NC)c4F)c4nc(c(-c5c(F)ccc(S(=O)(=O)NC)c5F)c5ccc2[nH]5)C=C4)C=C3)c1F", "note": "[porphyrin 2]", "values": [{"measurement": "solubility", "setting": "[3]", "value": "favourable solubility in aqueous and organic solvents"}, {"measurement": "solubility", "setting": "[3]; listed as Porphyrin 2", "value": "favourable solubility in both aqueous and organic solvents"}]}
